The results in this text go back to patent publication US20180360972A1, “THERAPEUTIC COMPOUNDS” (REGENTS OF THE UNIVERSITY OF MINNESOTA, priority 2017, published 2018).

One data set concerns male MC4RKO mice. Kind of data set: ICV administration, conventional cages, male MC4RKO mice. It is filed as in vivo. Here is the method:
All experiments were performed in accordance with the Institutional Animal Care and Use Committee (IACUC) at the University of Minnesota. Female and male littermates with mixed background from C57BL/6J and 129/Sv inbred strains were 8 weeks old at the time of surgeries. Mice were individually housed after surgeries and for the remainder of the experiment. Mice were maintained on a 12 hr light/dark cycle (Lights off was at 11:59 AM) in a temperature controlled room (23-25° C.). In the nocturnal feeding paradigm, mice had free access to normal chow (Harlan Teklad 2018 Diet: 18.6% crude protein, 6.2% crude fat, 3.5% crude fiber, with energy density of 3.1 kcal/g). […] Mice had free access to tap water throughout all the experiments. The cannula placement validation studies and conventional cage studies were performed in standard mouse polycarbonate conventional cages provided by University of Minnesota's Research Animal Resources (RAR). Weekly cage changes were conducted by lab research staff.
Mice were anesthetize with a mixture of ketamine (100 mg/kg) and xylazine (5 mg/kg) and were positioned in a stereotaxic apparatus (David Kopf Instruments). A 26-gauge cannula (Cat# 81C315GS4SPC; PlasticsOne, Roanoke, Va.) was inserted in the lateral cerebral ventricle at the coordinates 1.0 mm lateral and 0.46 mm posterior to bregma and 2.3 mm ventral to the skull (Franklin, K. B. J. & Paxinos, G. The Mouse Brain in Stereotaxic Coordinates. (Academic Press, 1997)).
As stated above, conventional cage experiments were performed in standard mouse polycarbonate conventional cages. […] All experiments followed a cross-over paradigm in which the mouse received saline and compound on different days with a washout period in between each treatment. Statistical analysis was performed using SPSS V23 software (IBM) using a multivariate general linear model followed by a Bonferroni's post hoc test. Results are presented as Mean±SEM. Statistically significant was considered p<0.05.
In male MC4RKO mice, CJL-5-58 was administered at 5 nmols in both a nocturnal paradigm and a fasting-refeeding paradigm in standard conventional cages (FIG. 15). The dose was well handled in the nocturnal paradigm, but minimal effect was observed.

The target in another data set is T1, hMC4R (Homo sapiens, UniProt P32245).
T1 construct: Flag; expressed in transfected cells
In words: AlphaScreen cAMP functional bioassay, hMC4R. In kind it is cell-based. The note with it: HEK293 cells stably expressing hMC4R. Here is the method:
Upon agonist stimulation, melanocortin receptors are known to signal through a Gαs-protein mediated signaling pathway that results in intracellular cAMP accumulation.
Stable populations were selected for using G418 selection (0.7-1.0 mg/mL) and used in bioassays unless indicated otherwise. In vitro experimental ligands were dissolved to a 10^−2 M stock in DMSO and stored at −20° C. Subsequent dilutions were performed in each assay's specific buffer to achieve the final concentration in the well. The ligands were assayed as TFA salts.
AlphaScreen cAMP Functional Bioassay
The AlphaScreen® assay was performed as described by manufacturer.
Cells were removed from plates using Gibco® Versene solution and pelleted by centrifugation (Sorvall Super T21 high speed centrifuge, swinging bucket rotor) at 800 rpm for five minutes. […] A 10 μL aliquot of cell suspension was counted manually using a hemocytometer after addition of Trypan blue dye (BioRad). Cells were again pelleted by centrifugation, and DPBS was gently aspirated. The pelleted cells were then resuspended in a solution of freshly made stimulation buffer (Hank's Balanced Salt Solution [HBSS 10× [−] sodium bicarbonate] and [−] phenol red, Gibco®], 0.5 mM isobutylmethylxanthine [IBMX], 5 mM HEPES buffer solution [1M, Gibco®], 0.1% bovine serum albumin [BSA] in Milli-Q water, pH=7.4) and anti-cAMP acceptor beads (1.0 unit per well, AlphaScreen®). […] The cells were then stimulated with ligand diluted in stimulation buffer to achieve their final concentrations in the well ranging from 10^−13 to 10^−4 M. The stimulated plates were incubated in a dark laboratory drawer at room temperature for two hours.
Meanwhile, a biotinylated cAMP/streptavidin donor bead working solution was made by adding biotinylated cAMP (1 Unit/well, AlphaScreen®) and streptavidin donor beads (1 Unit/well, AlphaScreen®) to a lysis buffer (10% Tween-20, 5 mM HEPES buffer solution [1M, Gibco®], 0.1% bovine serum albumin [BSA] in Milli-Q water, pH=7.4). After the two hour stimulation, the biotinylated cAMP/Streptavidin donor bead working solution was added to each well under green light and mixed well by pipetting up and down. The cells were incubated for another two hours at room temperature in a dark drawer at room temperature. The plate was then read on an EnSpire™ Alpha plate reader using a pre-normalized assay protocol set by the manufacturer. Assays were performed with duplicate data points on each plate and repeated in at least three independent experiments.
Dose response curves were analyzed using the PRISM program (v4.0; GraphPad Inc.).

Entries after “also recorded” stand apart in the source; their conditions may differ.

T1 sequence (P32245 whole entry): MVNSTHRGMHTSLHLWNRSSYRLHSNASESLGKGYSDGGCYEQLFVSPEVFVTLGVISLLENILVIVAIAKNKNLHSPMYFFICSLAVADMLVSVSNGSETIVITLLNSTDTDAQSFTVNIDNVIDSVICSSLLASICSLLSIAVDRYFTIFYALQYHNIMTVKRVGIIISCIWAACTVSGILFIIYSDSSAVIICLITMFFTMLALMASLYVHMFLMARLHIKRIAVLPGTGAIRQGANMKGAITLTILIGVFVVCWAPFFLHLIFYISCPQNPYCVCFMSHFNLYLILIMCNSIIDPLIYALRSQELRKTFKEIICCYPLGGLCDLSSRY

Turning to `CC(=O)N[C@@H](Cc1cnc[nH]1)C(=O)N[C@H](Cc1ccccc1)C(=O)N[C@@H](CCCNC(=N)N)C(=O)N[C@@H](Cc1c[nH]c2ccccc12)C(=O)NCCCOCCOCCOCCCNC(=O)COCC(=O)N[C@@H](Cc1cnc[nH]1)C(=O)N[C@H](Cc1ccc2ccccc2c1)C(=O)N[C@@H](CCCNC(=N)N)C(=O)N[C@@H](Cc1c[nH]c2ccccc12)C(N)=O` [CJL-5-58, Ac-His-DPhe-Arg-Trp-(PEDG20)-His-DNal(2′)-Arg-Trp-NH2], the toxicity result with male MC4RKO mice (ICV 2.5 to 5 nmols, conventional cages) was “Some toxicity was observed”. Moreover, in the data set with male MC4RKO mice (fasting-refeeding, 5 nmols), the adverse reactions entry is “some signs of adverse reactions”; the “body weight vs saline” value is reported as “no effect on mouse body weight”; the “food intake vs saline” value is “decreased food intake at 2, 4, 6, 8 and 24 hours after compound administration”. For the same molecule, in the data set on male MC4RKO mice (nocturnal paradigm, 5 nmols), the “body weight vs saline” value is recorded as “significant increase in body weight 6 hours after compound administration”, the “food intake vs saline” value was “immediate reduction in food intake 2 hours after compound administration” and the tolerability result is given as “well handled; also recorded: looked healthy”. Also, on hMC4R, the “cAMP agonist potency (in words)” value is given as “single digit nanomolar agonists”.
